pIC50, pKi: −log10 of the molar value. Read-outs that look alike come from different tables or passages of the source. A value given as a limit tells only on which side of the number the result lay.

In test [1] the test system is L1210 cells. Description: Growth inhibition of L1210 cells in suspension culture, 48 h count. Format: cell-based. As to conditions: Mus musculus. Here is the method:
Cells were diluted to 10^5 /ml and additions (diluted in medium and sterilised in Millipore filtration) made prior to starting each incubation. Cell counts were performed after 24 and 48 hours using an improved Neubauer haemocytometer.

For a further test, the target named is T1, TS (Mus musculus, UniProt P07607).
T1 construct: endogenous in cells
T1 sequence (P07607 whole entry): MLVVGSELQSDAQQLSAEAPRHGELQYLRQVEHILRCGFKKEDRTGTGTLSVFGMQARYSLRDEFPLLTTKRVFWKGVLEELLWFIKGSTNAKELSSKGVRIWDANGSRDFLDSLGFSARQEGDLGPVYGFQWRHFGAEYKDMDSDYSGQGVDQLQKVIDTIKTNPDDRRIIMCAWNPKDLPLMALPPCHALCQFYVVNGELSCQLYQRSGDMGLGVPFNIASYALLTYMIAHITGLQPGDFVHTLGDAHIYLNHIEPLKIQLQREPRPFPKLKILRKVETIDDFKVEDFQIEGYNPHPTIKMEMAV
Nature of the test: Inhibition of TS purified >2,000 fold from L1210 cells by affinity chromatography. The following applies: for Relative potency ([drawing 17], I50 relative to CB 3717): relative to CB 3717 control, higher = weaker; for pIC50: second results table, TS purified >2,000 fold, read-out: TS I50. Format: biochemical.

The test system of test [2] is L1210 cells. Nature of the test: Reversal of toxicity to L1210 cells in culture by thymidine. Format: cell-based, mouse. As to conditions: second results table; L1210. Here is the method: (§1) L1210 and L1210:R71 cells were grown in continuous suspension culture in RPMI 1640 medium containing 10% horse serum (Flow Laboratories, Irvine, Scotland; UK). Cells were diluted to 10^5 /ml and additions (diluted in medium and sterilised in Millipore filtration) made prior to starting each incubation. Cell counts were performed after 24 and 48 hours using an improved Neubauer haemocytometer.

Test [3] has as its target T2, THYMIDYLATE SYNTHETASE (TS) (Mus musculus, UniProt P07607).
T2 construct: The cytosol of log phase L1210 cells harvested from animals was partially purified for TS I50 and Ki determinations; endogenous in cells; host or cells: L1210 cells harvested from animals (cytosol, partially purified)
Nature of the test: Inhibition of thymidylate synthetase (TS), partially purified L1210 cytosol. Format: biochemical. The following applies: Table 1, inhibitor concentration reducing TS reaction rate by 50%, read-out: THYMIDYLATE SYNTHETASE I50. An excerpt:
(§2) The cytosol of log phase L1210 cells harvested from animals was partially purified for TS I50 and Ki determinations to remove from the preparation a phosphatase which degrades dUMP to deoxyuridine. (The I50 was defined as the inhibitor concentration necessary to reduce the reaction rate of TS by 50%). DHFR was purified by affinity chromatography and Ki determinations performed.

Another test relates to L1210:R71 cells. Description: Growth inhibition of methotrexate-resistant L1210:R71 cells in suspension culture, 48 h count. Format: cell-based, mouse. The following applies: Table 2; for pIC50: Mus musculus, MTX-resistant, 48 hour count reduced to 50% of control, read-out: ID50 L1210:R71. Here is the method:
The compounds of Example 2 were evaluated in vitro as inhibitors as TS and cell growth and in vivo against the L1210 tumour. Since methotrexate (MTX) resistance is an important problem in cancer therapy, the compounds of the present invention were also investigated with this in mind.
as §1

Test [4] concerns the target DIHYDROFOLATE REDUCTASE (DHFR). Nature of the test: Inhibition of dihydrofolate reductase (DHFR) purified by affinity chromatography. Format: biochemical. The following applies: Table 1.
Text: as §2

Where [5] appears, read: L1210, 48 h, second results table, read-out: ID50 L1210 (Tissue culture).
Setting [6] is: L1210, Table 2, 48 hour count reduced to 50% of control, read-out: ID50 L1210.

T2 sequence (P07607 whole entry): as above

`Nc1nc(O)c2cc(CN(Cc3c[nH]c(=O)[nH]c3=O)c3ccc(C(=O)N[C@@H](CCC(=O)O)C(=O)O)cc3)ccc2n1` [CB 3743, N-(4-(N-(2-amino-4-hydroxy-6-quinazolinyl)methyl-N-(5-uracilyl)methyl-amino)benzoyl)-L-glutamic acid]: the pIC50 in the test on L1210 cells [1] (setting [5]) was 5.33. Also, at TS, the “Relative potency ([drawing 17], I50 relative to CB 3717)” value (“Relative potency” below) is reported as more than 22 and the pIC50 is less than 6.00. For the same compound, the “Reversal by thymidine (in culture)” value in the test on L1210 cells [2] is reported as “yes”.

On to `C#CCN(Cc1ccc2nc(N)[nH]c(=O)c2c1)c1ccc(C(=O)N[C@@H](CC(=O)O)C(=O)O)cc1` [CB 3737], for which, in the test with L1210 cells [1] (setting [5]), the pIC50 was less than 4.00. Moreover, at TS, the “Relative potency” value was determined as 1.6 and the pIC50 was 7.18.

As to `NC(=O)CN(Cc1ccc2nc(N)[nH]c(=O)c2c1)c1ccc(C(=O)N[C@@H](CCC(=O)O)C(=O)O)cc1` [CB 3734], the pIC50 with L1210 cells [1] (setting [5]) was 4.06. Moreover, on TS, the “Relative potency” value is given as more than 62.5 and the pIC50 was less than 5.52. Further, the “Reversal by thymidine (in culture)” value with L1210 cells [2] was “yes”.

As to `Nc1nc(O)c2cc(CN(CCF)c3ccc(C(=O)N[C@@H](CCC(=O)O)C(=O)O)cc3)ccc2n1` [CB 3731, N-(4-(N-((2-amino-4-hydroxy-6-quinazolinyl)methyl)2-fluoroethylamino)benzoyl)-L-glutamic acid], in the test on L1210 cells [1] (setting [5]), the pIC50 is 4.80. Also, on TS, the “Relative potency” value worked out at 6.8 and the pIC50 was 7.02.

Consider `CCCN(Cc1ccc2nc(N)[nH]c(=O)c2c1)c1ccc(C(=O)N[C@@H](CCC(=O)O)C(=O)O)cc1` [Comparison, reference compound], for which the figures for the pIC50 (in the test on L1210 cells [1] (setting [6]); in test [3]; with L1210:R71 cells) were 4.48, 6.77 and 3.50, respectively. The “CROSS RESISTANCE (ID50 L1210:R71/ID50 L1210)” value in the test with L1210:R71 cells is recorded as 10. This compound also gave a pKi in test [4] of 7.70.

In the case of `CCOC(=O)CC[C@H](NC(=O)c1ccc(N(CC(=O)OCC)Cc2ccc3nc(N)[nH]c(=O)c3c2)cc1)C(=O)OCC` [CB 3745], the pIC50 with L1210 cells [1] (setting [5]) was less than 4.00.

In the case of `Nc1nc2ccc(CN(CC3CO3)c3ccc(C(=O)N[C@@H](CCC(=O)O)C(=O)O)cc3)cc2c(=O)[nH]1` (stereo partly drawn) [CB 3736], the pIC50 was less than 3.52 in the test with L1210 cells [1] (setting [5]) and 6.51 at TS. Also, the “Relative potency” value on TS worked out at 7.6.

Regarding `C#CCN(Cc1ccc2nc(N)[nH]c(=O)c2c1)c1ccc(C(=O)N[C@@H](CCC(=O)OCC)C(=O)OCC)c(Cl)c1` [CB 3750], the pIC50 with L1210 cells [1] (setting [5]) is 4.74.

For `C#CCN(Cc1ccc2nc(N)[nH]c(=O)c2c1)c1ccc(C(=O)N[C@@H](CCC(=O)O)C(=O)O)c(C)c1` [CB 3738], the pIC50 in the test on L1210 cells [1] (setting [5]) was 4.62. In addition, at TS, the “Relative potency” value is on record as 1.1 and the pIC50 was 7.33.

`C#CCN(Cc1ccc2nc(N)[nH]c(=O)c2c1)c1ccc(C(=O)N[C@@H](CC(=O)OCC)C(=O)OCC)cc1` [CB 3748]: in the test with L1210 cells [1] (setting [5]), the pIC50 was 4.00.

Consider `Nc1nc(O)c2cc(CN(CCCO)c3ccc(C(=O)N[C@@H](CCC(=O)O)C(=O)O)cc3)ccc2n1` [CB 3729, N-(4-(N-((2-amino-4-hydroxy-6-quinazolinyl)methyl)-3-hydroxypropylamino)-benzoyl)-L-glutamic acid], for which the pIC50 with L1210 cells [1] (setting [5]) was 4.27. Also, on TS, the “Relative potency” value is on record as 8.6 and the pIC50 was 6.92.

For `N#CCN(Cc1ccc2nc(N)[nH]c(=O)c2c1)c1ccc(C(=O)N[C@@H](CCC(=O)O)C(=O)O)cc1` [CB 3726], the pIC50 with L1210 cells [1] (setting [5]) is 5.27; at TS, 7.03. The “Relative potency” value at TS is listed as 15.6.

Take `C=CCN(Cc1ccc2nc(N)nc(O)c2c1)c1ccc(C(=O)N[C@@H](CCC(=O)O)C(=O)O)cc1` [CB 3716, N-(4-(N-((2-amino-4-hydroxy-6-quinazolinyl)methyl)prop-2-enylamino)benzoyl)-L-glutamic acid]: the pIC50 with L1210 cells [1] (setting [6]) is 5.06; in test [3] it was 7.16; in the test on L1210:R71 cells, 4.00. Also, the “CROSS RESISTANCE (ID50 L1210:R71/ID50 L1210)” value in the test on L1210:R71 cells turned out to be 11. This compound also gave a negative logarithm of the Ki (pKi) in test [4] of 7.57.

Take `C#CCN(Cc1ccc2nc(N)[nH]c(=O)c2c1)c1ccc(C(=O)N[C@@H](CCC(=O)O)C(=O)O)c(Cl)c1` [CB 3739]: in the test on L1210 cells [1] (setting [5]), the pIC50 was 4.77.

Regarding `C#CCN(Cc1ccc2nc(N)[nH]c(=O)c2c1)c1ccc(C(=O)N[C@@H](CCC(=O)OCC)C(=O)OCC)c(C)c1` [CB 3749], the pIC50 in the test on L1210 cells [1] (setting [5]) was 4.00.

On to `Nc1nc2ccc(CN(CC(=O)O)c3ccc(C(=O)N[C@@H](CCC(=O)O)C(=O)O)cc3)cc2c(=O)[nH]1` [CB 3728], for which the pIC50 in the test with L1210 cells [1] (setting [5]) is 4.57; on TS, 5.85. The “Relative potency” value at TS is 100. For the same compound, in the test on L1210 cells [2], the “Reversal by thymidine (in culture)” value was “yes”.

Turning to `CCOC(=O)CC[C@H](NC(=O)c1ccc(N(CC(=O)c2ccccc2)Cc2ccc3nc(N)nc(O)c3c2)cc1)C(=O)OCC` [CB 3744, diethyl N-(4-(N-((2-amino-4-hydroxy-6-quinazolinyl)methyl)phenacylamino)benzoyl)-L-glutamate], the pIC50 in the test on L1210 cells [1] (setting [5]) is less than 4.00.

On to `CCOC(=O)CC[C@H](NC(=O)c1ccc(N(Cc2ccc3nc(N)[nH]c(=O)c3c2)CC(O)CBr)cc1)C(=O)OCC` (stereo partly drawn) [CB 3747], for which the pIC50 in the test on L1210 cells [1] (setting [5]) was less than 4.00.

On to `Nc1nc2ccc(CN(CCBr)c3ccc(C(=O)N[C@@H](CCC(=O)O)C(=O)O)cc3)cc2c(=O)[nH]1` [CB 3735], for which the results for the pIC50 with L1210 cells [1] (setting [5]) and at TS were 4.28 and 5.96, respectively. For the same compound, the “Relative potency” value on TS amounted to 23.

For `CCOC(=O)CC[C@H](NC(=O)c1ccc(N(CCBr)Cc2ccc3nc(N)[nH]c(=O)c3c2)cc1)C(=O)OCC` [CB 3746], the pIC50 with L1210 cells [1] (setting [5]) was less than 4.00.

In the case of `Nc1nc(O)c2cc(CN(CC(=O)c3ccccc3)c3ccc(C(=O)N[C@@H](CCC(=O)O)C(=O)O)cc3)ccc2n1` [CB 3733, N-(4-(N-((2-amino-4-hydroxy-6-quinazolinyl)methyl)phenacylamino)benzoyl)-L-glutamic acid], the pIC50 in the test with L1210 cells [1] (setting [5]) was 4.00; at TS it was 5.79. Besides, the “Relative potency” value on TS is 40.

Consider `C#CCN(Cc1ccc2nc(N)nc(O)c2c1)c1ccc(C(=O)N[C@@H](CCC(=O)OCC)C(=O)OCC)cc1` [CB 3721, diethyl N-(4-(N-((2-amino-4-hydroxy-6-quinazolinyl)methyl)prop-2-ynylamino)benzoyl)-L-glutamate], for which, in the test with L1210 cells [1] (setting [5]), the pIC50 was 4.28. On TS, the “Relative potency” value was more than 62 and the pIC50 was less than 5.52.

(Values after patent publication US4447608A, “Anti-cancer quinazoline derivatives” (priority 1979, dated 1984).)
